{"source": "patent EP0554004A2", "about": "“Cephem compounds and antibacterial agents” (KATAYAMA SEIYAKUSYO CO. Ltd., priority 1992, dated 1993)", "key": {"[1]": {"test_system": "E. coli CSH2 (RE45)", "experiment": "MIC against standard strains (Test Example 3)", "format": "cell-based", "settings": "Escherichia coli", "outline": "(§1)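 Overnight Mueller-Hinton broth cultures grown at 37°C were diluted to 1 x 10^6 CFU/ml in the same broth and inoculated onto Mueller-Hinton agar containing the test agent. After overnight incubation at 37°C, MIC was taken as the lowest concentration inhibiting growth.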"}, "[2]": {"test_system": "S. aureus 167", "experiment": "MIC against standard strains (Test Example 3)", "format": "cell-based", "settings": "Staphylococcus aureus; S. aureus 167 (MRSA) (Test Example 3); read-out: MIC", "outline": "(§2)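 Agar dilution on Muller-Hinton agar containing test agent, inoculated with overnight Muller-Hinton broth cultures adjusted to 1 x 10^6 CFU/ml; MIC read as lowest concentration inhibiting growth after overnight incubation at 37°C.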"}, "[3]": {"test_system": "M. luteus ATCC 9341", "experiment": "MIC against standard strains (Test Example 3)", "format": "cell-based", "settings": "Micrococcus luteus, ATCC9341; M. luteus ATCC 9341 (Test Example 3); read-out: MIC", "outline": "as §2"}, "[4]": {"test_system": "E. cloacae ATCC13407", "experiment": "MIC against standard strains (Test Example 3)", "format": "cell-based", "settings": "Enterobacter cloacae; E. cloacae ATCC13407 (Test Example 3); read-out: MIC", "outline": "as §2"}, "[5]": {"test_system": "E. coli CSH2 (RK1)", "experiment": "MIC against standard strains (Test Example 3)", "format": "cell-based", "settings": "Escherichia coli", "outline": "as §1"}, "[6]": {"test_system": "E. coli NIHJ JC-2", "experiment": "MIC against standard strains (Test Example 3)", "format": "cell-based", "settings": "Escherichia coli, NIHJJC2; E. coli NIHJ JC-2 (Test Example 3); read-out: MIC", "outline": "as §2"}, "[7]": {"test_system": "S. marcescens IAM1184", "experiment": "MIC against standard strains (Test Example 3)", "format": "cell-based", "settings": "Serratia marcescens; S. marcescens IAM1184 (Test Example 3); read-out: MIC", "outline": "as §2"}, "[8]": {"test_system": "clinically isolated MRSA", "experiment": "Antibacterial potency against clinically isolated MRSA (Test Example 2)", "format": "cell-based, methicillin-resistant Staphylococcus aureus", "settings": "Staphylococcus aureus, 52 strains of clinically isolated MRSA", "procedure": "A test on the antibacterial potency against clinically isolated MRSA was conducted in the following way.\n52 strains of clinically isolated MRSA were used, and MIC was determined for each of the strains according to the standard method of the Japan Chemotherapical Society as in Test Example 1. The minimum growth inhibitory concentration which inhibited growth of 50% of the strains tested was expressed as MIC50 (µg/ml), and the minimum growth inhibitory concentration which inhibited growth of 90% of the strains was expressed as MIC90 (µg/ml).\nIn this test, FMOX (flomoxef), IPM/CS (imipenem/cilastatin), CMZ (cefmetazole), MINO (minocycline) and DMPPC (methicillin) were used as control agents."}}, "data": [{"smiles": "CO[C@@]1(NC(=O)CSC(F)F)C(=O)N2C(C(=O)O)=C(CSc3nnnn3CCO)CO[C@@H]21", "note": "[FMOX, flomoxef, reference compound]", "values": [{"measurement": "MIC", "setting": "[1]", "value": 0.05, "unit": "µg/mL"}, {"measurement": "MIC", "setting": "[2]", "value": 50, "unit": "µg/mL"}, {"measurement": "MIC", "setting": "[3]", "value": 0.05, "unit": "µg/mL"}, {"measurement": "MIC", "setting": "[4]", "value": 25, "unit": "µg/mL"}, {"measurement": "MIC", "setting": "[5]", "value": 0.05, "unit": "µg/mL"}, {"measurement": "MIC", "setting": "[6]", "value": 0.05, "unit": "µg/mL"}, {"measurement": "MIC", "setting": "[7]", "value": 0.2, "unit": "µg/mL"}, {"measurement": "MIC50", "setting": "[8]; concentration inhibiting growth of 50% of the strains (Test Example 2)", "value": 8.16, "unit": "µg/mL"}, {"measurement": "MIC90", "setting": "[8]; concentration inhibiting growth of 90% of the strains (Test Example 2)", "value": 40.2, "unit": "µg/mL"}]}]}
